# Measurements as given in EPA's ToxRefDB 2.
# What was measured:
# rat [1] = conditions: Subchronic oral toxicity in rodents, sprague dawley, Gavage/Intubation, dose end: 90 day, group: systemic
# rat [2] = conditions: Sub-acute repeat dose toxicity, sprague dawley, Oral, Gavage/Intubation, dose end: 10 day, group: systemic
# rat [3] = conditions: Neurotoxicity screening battery, other, Oral, Feed, dose end: 90 day, group: cannot be grouped
# mouse [4] = conditions: Subchronic oral toxicity in rodents, b6c3f1, Feed, dose end: 90 day, group: systemic, systemic / organ weight / liver / absolute + systemic / organ weight / liver / relative to body weight + systemic / organ weight / liver / …
# rat [5] = conditions: Sub-acute repeat dose toxicity; other; Oral; Feed; dose end: 28 day; group: systemic; systemic / clinical chemistry / glucose / glucose + systemic / in life observation / body weight / body weight + systemic / in life …
# mouse [6] = conditions: Sub-acute repeat dose toxicity, b6c3f1, Oral, Feed, dose end: 28 day, group: systemic
# rat [7] = conditions: Prenatal developmental toxicity study, sprague dawley, Dermal, Topical, dose end: 15 GD
# rat [8] = conditions: Prenatal developmental toxicity study, sprague dawley, Dermal, Topical, dose end: 15 GD, group: maternal
# dog = conditions: Subchronic oral toxicity in nonrodent, beagle, Feed, dose end: 13 week, group: systemic
# rat [9] = conditions: Combined chronic toxicity/carcinogenicity; sprague dawley; Oral; Feed; dose end: 2 year; group: systemic; systemic / in life observation / body weight / body weight + systemic / in life observation / body weight / body weight gain + systemic / in…
# mouse [10] = conditions: Combined chronic toxicity/carcinogenicity, b6c3f1, Oral, Feed, dose end: 18 month, group: systemic
# [11] = systemic / clinical chemistry / alkaline phosphatase (alp/alk) / alkaline phosphatase (alp/alk) + systemic / clinical chemistry / calcium / …
# [12] = systemic / pathology microscopic / liver / inflammation + systemic / clinical chemistry / aspartate aminotransferase (ast/sgot) / aspartate …
# [13] = systemic / clinical chemistry / cholesterol / cholesterol + systemic / in life observation / body weight / body weight + systemic / organ …
# [14] = systemic / in life observation / body weight / body weight + systemic / in life observation / body weight / body weight gain + systemic / in…
# [15] = systemic / pathology microscopic / kidney / hypertrophy
# [16] = systemic / pathology microscopic / kidney / hypertrophy + systemic / in life observation / mortality / mortality
# [17] = group: developmental, developmental / developmental malformation / bone / absent + developmental / developmental malformation / bone / fused + developmental / …
# [18] = group: maternal, reproductive / reproductive performance / resorptions / resorptions + systemic / in life observation / body weight / body weight gain + …
# [19] = group: maternal, systemic / in life observation / clinical signs / desquamation
# [20] = reproductive / reproductive performance / aborted / aborted + reproductive / reproductive performance / resorptions / resorptions + systemic…
# [21] = systemic / in life observation / clinical signs / desquamation + systemic / in life observation / clinical signs / urine, discoloration
# [22] = systemic / hematology / platelet / platelet
# [23] = systemic / hematology / platelet / platelet + systemic / in life observation / body weight / body weight gain + systemic / clinical …
# [24] = systemic / pathology microscopic / liver / hepatocellular adenoma + systemic / pathology microscopic / liver / hepatocellular carcinoma + …
smiles,measurement,setting,value
"Clc1cccc(Cl)c1 [1,3-Dichlorobenzene]",LOAEL,rat [1]; [11],> 588 mg/kg/day
same,NOAEL,rat [1]; [11],≥ 588 mg/kg/day
same,LEL,rat [1]; [12],9 mg/kg/day
same,NEL,rat [1]; [12],< 9 mg/kg/day
same,NEL,rat [2]; systemic / clinical chemistry / cholesterol / cholesterol + systemic / in life observation / body weight / body weight + systemic / in life …,37 mg/kg/day
same,LOAEL,rat [2]; [13],> 735 mg/kg/day
same,NOAEL,rat [2]; [13],≥ 735 mg/kg/day
same,LEL,rat [2]; systemic / organ weight / liver / nos + systemic / pathology microscopic / liver / necrosis,147 mg/kg/day
CN1CCCC1=O [N-Methyl-2-pyrrolidone],LOAEL,rat [3]; systemic / in life observation / body weight / body weight + systemic / in life observation / body weight / body weight gain,433 mg/kg/day
same,LEL,rat [3]; [14],433 mg/kg/day
same,NEL,rat [3]; [14],169 mg/kg/day
same,NOAEL,rat [3]; [14],169 mg/kg/day
same,LEL,mouse [4],619 mg/kg/day
same,LOAEL,mouse [4],619 mg/kg/day
same,NEL,mouse [4],277 mg/kg/day
same,NOAEL,mouse [4],277 mg/kg/day
same,LEL,rat [5],1230 mg/kg/day
same,LOAEL,rat [5],1230 mg/kg/day
same,NEL,rat [5],429 mg/kg/day
same,NOAEL,rat [5],429 mg/kg/day
same,LEL,mouse [6]; [15],2130 mg/kg/day
same,LOAEL,mouse [6]; [15],2130 mg/kg/day
same,NEL,mouse [6]; [16],720 mg/kg/day
same,NOAEL,mouse [6]; [16],720 mg/kg/day
same,LEL,rat [7]; [17],750 mg/kg/day
same,LOAEL,rat [7]; [17],> 750 mg/kg/day
same,NEL,rat [7]; [17],237 mg/kg/day
same,NOAEL,rat [7]; [17],≥ 750 mg/kg/day
same,LOAEL,rat [7]; [18],> 750 mg/kg/day
same,NOAEL,rat [7]; [18],≥ 750 mg/kg/day
same,LEL,rat [7]; [19],75 mg/kg/day
same,NEL,rat [7]; [19],< 75 mg/kg/day
same,LOAEL,rat [8]; [20],> 2500 mg/kg/day
same,NOAEL,rat [8]; [20],≥ 2500 mg/kg/day
same,LEL,rat [8]; [21],500 mg/kg/day
same,NEL,rat [8]; [21],< 500 mg/kg/day
same,LEL,dog; [22],25 mg/kg/day
same,NEL,dog; [22],< 25 mg/kg/day
same,LOAEL,dog; [23],> 250 mg/kg/day
same,NOAEL,dog; [23],≥ 250 mg/kg/day
same,LEL,rat [9],678 mg/kg/day
same,LOAEL,rat [9],> 678 mg/kg/day
same,NEL,rat [9],207 mg/kg/day
same,NOAEL,rat [9],≥ 678 mg/kg/day
same,LEL,mouse [10]; systemic / organ weight / liver / absolute + systemic / organ weight / liver / relative to body weight + systemic / pathology microscopic / …,173 mg/kg/day
same,LOAEL,mouse [10]; [24],> 1090 mg/kg/day
same,NEL,mouse [10]; [24],89 mg/kg/day
same,NOAEL,mouse [10]; [24],≥ 1090 mg/kg/day
